From ChEMBL document CHEMBL3046822, “Synthesis, antiplatelet aggregation activity, and molecular modeling study of novel substituted-piperazine analogues” (2011)
Active and inactive are the calls of the source. The rule behind the calls is not given here.

What was measured:
Platelet [1] = experiment: Antiaggregating activity in Homo sapiens (human) platelet rich plasma assessed as inhibition of adrenaline-induced platelet aggregation at 2 uM incubated for 4 min prior to adrenaline-induction measured for 5.5 min by turbidometric analysis; format: functional, cell-free
[2] = Antiaggregating activity in Homo sapiens (human) platelet rich plasma assessed as ristocetin-induced platelet aggregation at 2 uM incubated for 4 min prior to ristocetin-induction measured for 5.5 min by turbidometric analysis (reference value: 65 to 99%); format: functional
Platelet [3] = experiment: Antiaggregating activity in Homo sapiens (human) platelet rich plasma assessed as inhibition of ADP-induced platelet aggregation at 2 uM incubated for 4 min prior to ADP-induction measured for 5.5 min by turbidometric analysis; format: functional, cell-free
Platelet [4] = experiment: Antiaggregating activity in Homo sapiens (human) platelet rich plasma assessed as inhibition of collagen-induced platelet aggregation at 2 uM incubated for 4 min prior to collagen-induction measured for 5.5 min by turbidometric analysis; format: functional, cell-free
Platelet [5] = experiment: Antiaggregating activity in Homo sapiens (human) platelet rich plasma assessed as inhibition of arachidonic acid-induced platelet aggregation at 2 uM incubated for 4 min prior to arachidonic acid-induction measured for 5.5 min by turbidometric analysis; format: functional, cell-free
Platelet [6] = experiment: Antiaggregating activity in Homo sapiens (human) platelet rich plasma assessed as inhibition of arachidonic acid-induced platelet aggregation at 1 uM incubated for 4 min prior to arachidonic acid-induction measured for 5.5 min by turbidometric analysis; format: functional, cell-free
Platelet [7] = experiment: Antiaggregating activity in Homo sapiens (human) platelet rich plasma assessed as inhibition of ADP-induced platelet aggregation at 2.5 uM incubated for 4 min prior to ADP-induction measured for 5.5 min by turbidometric analysis; format: functional, cell-free
Platelet [8] = experiment: Antiaggregating activity in Homo sapiens (human) platelet rich plasma assessed as inhibition of adrenaline-induced platelet aggregation at 1 uM incubated for 4 min prior to adrenaline-induction measured for 5.5 min by turbidometric analysis; format: functional, cell-free
Platelet [9] = experiment: Antiaggregating activity in Homo sapiens (human) platelet rich plasma assessed as inhibition of collagen-induced platelet aggregation at 2.5 uM incubated for 4 min prior to collagen-induction measured for 5.5 min by turbidometric analysis; format: functional, cell-free
[10] = Antiaggregating activity in Homo sapiens (human) platelet rich plasma assessed as ristocetin-induced platelet aggregation at 1 uM incubated for 4 min prior to ristocetin-induction measured for 5.5 min by turbidometric analysis (reference value: 65 to 99%); format: functional
Platelet [11] = experiment: Antiaggregating activity in Homo sapiens (human) platelet rich plasma assessed as inhibition of ADP-induced platelet aggregation at 1 uM incubated for 4 min prior to ADP-induction measured for 5.5 min by turbidometric analysis; format: functional, cell-free
Platelet [12] = experiment: Antiaggregating activity in Homo sapiens (human) platelet rich plasma assessed as collagen-induced platelet aggregation at 0.25 uM incubated for 4 min prior to collagen-induction measured for 5.5 min by turbidometric analysis (reference value: 50 to 98%); format: functional
Platelet [13] = experiment: Antiaggregating activity in Homo sapiens (human) platelet rich plasma assessed as inhibition of collagen-induced platelet aggregation at 1 uM incubated for 4 min prior to collagen-induction measured for 5.5 min by turbidometric analysis; format: functional, cell-free
Platelet [14] = experiment: Antiaggregating activity in Homo sapiens (human) platelet rich plasma assessed as inhibition of adrenaline-induced platelet aggregation at 2.5 uM incubated for 4 min prior to adrenaline-induction measured for 5.5 min by turbidometric analysis; format: functional, cell-free
Platelet [15] = experiment: Antiaggregating activity in Homo sapiens (human) platelet rich plasma assessed as inhibition of arachidonic acid-induced platelet aggregation at 2.5 uM incubated for 4 min prior to arachidonic acid-induction measured for 5.5 min by turbidometric analysis; format: functional, cell-free
[16] = Antiaggregating activity in Homo sapiens (human) platelet rich plasma assessed as disaggregation of ADP-induced platelet aggregation at 0.25 uM incubated for 4 min prior to ADP-induction measured for 5.5 min by turbidometric analysis relative to control; format: functional
Platelet [17] = experiment: Antiaggregating activity in Homo sapiens (human) platelet rich plasma assessed as inhibition of arachidonic acid-induced platelet aggregation at 0.5 uM incubated for 4 min prior to arachidonic acid-induction measured for 5.5 min by turbidometric analysis; format: functional
Platelet [18] = experiment: Antiaggregating activity in Homo sapiens (human) platelet rich plasma assessed as inhibition of adrenaline-induced platelet aggregation at 0.5 uM incubated for 4 min prior to adrenaline-induction measured for 5.5 min by turbidometric analysis; format: functional, cell-free
Platelet [19] = experiment: Antiaggregating activity in Homo sapiens (human) platelet rich plasma assessed as inhibition of adrenaline-induced platelet aggregation at 0.25 uM incubated for 4 min prior to adrenaline-induction measured for 5.5 min by turbidometric analysis; format: functional, cell-free
[20] = Antiaggregating activity in Homo sapiens (human) platelet rich plasma assessed as ristocetin-induced platelet aggregation at 0.5 uM incubated for 4 min prior to ristocetin-induction measured for 5.5 min by turbidometric analysis (reference value: 65 to 99%); format: functional
Platelet [21] = experiment: Antiaggregating activity in Homo sapiens (human) platelet rich plasma assessed as inhibition of ADP-induced platelet aggregation at 0.5 uM incubated for 4 min prior to ADP-induction measured for 5.5 min by turbidometric analysis; format: functional, cell-free
Platelet [22] = experiment: Antiaggregating activity in Homo sapiens (human) platelet rich plasma assessed as inhibition of collagen-induced platelet aggregation at 0.25 uM incubated for 4 min prior to collagen-induction measured for 5.5 min by turbidometric analysis; format: functional
Platelet [23] = experiment: Antiaggregating activity in Homo sapiens (human) platelet rich plasma assessed as inhibition of collagen-induced platelet aggregation at 0.5 uM incubated for 4 min prior to collagen-induction measured for 5.5 min by turbidometric analysis; format: functional, cell-free
[24] = Antiaggregating activity in Homo sapiens (human) platelet rich plasma assessed as ristocetin-induced platelet aggregation at 0.25 uM incubated for 4 min prior to ristocetin-induction measured for 5.5 min by turbidometric analysis (reference value: 65 to 99%); format: functional
Platelet [25] = experiment: Antiaggregating activity in Homo sapiens (human) platelet rich plasma assessed as inhibition of arachidonic acid-induced platelet aggregation at 0.25 uM incubated for 4 min prior to arachidonic acid-induction measured for 5.5 min by turbidometric analysis; format: functional, cell-free
Platelet [26] = experiment: Antiaggregating activity in Homo sapiens (human) platelet rich plasma assessed as inhibition of adrenaline-induced platelet aggregation at 5 uM incubated for 4 min prior to adrenaline-induction measured for 5.5 min by turbidometric analysis; format: functional, cell-free
Platelet [27] = experiment: Antiaggregating activity in Homo sapiens (human) platelet rich plasma assessed as inhibition of ristocetin-induced platelet aggregation at 5 uM incubated for 4 min prior to ristocetin-induction measured for 5.5 min by turbidometric analysis; format: functional, cell-free
[28] = Antiaggregating activity in Homo sapiens (human) platelet rich plasma assessed as ADP-induced platelet aggregation at 0.5 uM incubated for 4 min prior to ADP-induction measured for 5.5 min by turbidometric analysis (reference value: 54 to 88%); format: functional
[29] = Antiaggregating activity in Homo sapiens (human) platelet rich plasma assessed as disaggregation of ADP-induced platelet aggregation at 1 uM incubated for 4 min prior to ADP-induction measured for 5.5 min by turbidometric analysis relative to control; format: functional
Platelet [30] = experiment: Antiaggregating activity in Homo sapiens (human) platelet rich plasma assessed as inhibition of ADP-induced platelet aggregation at 5 uM incubated for 4 min prior to ADP-induction measured for 5.5 min by turbidometric analysis; format: functional, cell-free
[31] = Antiaggregating activity in Homo sapiens (human) platelet rich plasma assessed as collagen-induced platelet aggregation at 0.5 uM incubated for 4 min prior to collagen-induction measured for 5.5 min by turbidometric analysis (reference value: 50 to 98%); format: functional
Platelet [32] = experiment: Antiaggregating activity in Homo sapiens (human) platelet rich plasma assessed as inhibition of collagen-induced platelet aggregation at 5 uM incubated for 4 min prior to collagen-induction measured for 5.5 min by turbidometric analysis; format: functional, cell-free
[33] = Antiaggregating activity in Homo sapiens (human) platelet rich plasma assessed as arachidonic acid-induced platelet aggregation at 0.5 uM incubated for 4 min prior to arachidonic acid-induction measured for 5.5 min by turbidometric analysis (reference value: 55 to 100%); format: functional
Platelet [34] = experiment: Antiaggregating activity in Homo sapiens (human) platelet rich plasma assessed as inhibition of arachidonic acid-induced platelet aggregation at 5 uM incubated for 4 min prior to arachidonic acid-induction measured for 5.5 min by turbidometric analysis; format: functional, cell-free
[35] = Antiaggregating activity in Homo sapiens (human) platelet rich plasma assessed as arachidonic acid-induced platelet aggregation at 1 uM incubated for 4 min prior to arachidonic acid-induction measured for 5.5 min by turbidometric analysis (reference value: 55 to 100%); format: functional
[36] = Antiaggregating activity in Homo sapiens (human) platelet rich plasma assessed as ADP-induced platelet aggregation at 0.1 uM incubated for 4 min prior to ADP-induction measured for 5.5 min by turbidometric analysis (reference value: 54 to 88%); format: functional
Platelet [37] = experiment: Antiaggregating activity in Homo sapiens (human) platelet rich plasma assessed as inhibition of adrenaline-induced platelet aggregation at 0.1 uM incubated for 4 min prior to adrenaline-induction measured for 5.5 min by turbidometric analysis; format: functional, cell-free
Platelet [38] = experiment: Antiaggregating activity in Homo sapiens (human) platelet rich plasma assessed as inhibition of ADP-induced platelet aggregation at 0.25 uM incubated for 4 min prior to ADP-induction measured for 5.5 min by turbidometric analysis; format: functional, cell-free
[39] = Antiaggregating activity in Homo sapiens (human) platelet rich plasma assessed as collagen-induced platelet aggregation at 0.1 uM incubated for 4 min prior to collagen-induction measured for 5.5 min by turbidometric analysis (reference value: 50 to 98%); format: functional
[40] = Antiaggregating activity in Homo sapiens (human) platelet rich plasma assessed as ristocetin-induced platelet aggregation at 0.1 uM incubated for 4 min prior to ristocetin-induction measured for 5.5 min by turbidometric analysis (reference value: 65 to 99%); format: functional
[41] = Antiaggregating activity in Homo sapiens (human) platelet rich plasma assessed as arachidonic acid-induced platelet aggregation at 0.1 uM incubated for 4 min prior to arachidonic acid-induction measured for 5.5 min by turbidometric analysis (reference value: 55 to 100%); format: functional

Row | Structure (SMILES) | inhibition (Platelet [1]) | Activity [2] [%] | inhibition (Platelet [3]) | inhibition (Platelet [4]) | inhibition (Platelet [5]) | inhibition (Platelet [6]) | inhibition (Platelet [7]) | inhibition (Platelet [8]) | inhibition (Platelet [9]) | Activity [10] [%] | inhibition (Platelet [11]) | inhibition (Platelet [12]) | inhibition (Platelet [13]) | inhibition (Platelet [14]) | inhibition (Platelet [15]) | inhibition (Platelet [17]) | inhibition (Platelet [18]) | inhibition (Platelet [19]) | Activity [20] [%] | inhibition (Platelet [21]) | further results
1 | Cl.Cl.O=C(C1CCCN(Cc2ccccc2)C1)N1CCN(C(=O)C2CCCN(Cc3ccccc3)C2)CC1 (stereo not given) | Active | 9 | Active | Active | Active | – | – | – | – | – | – | – | – | – | – | – | – | – | – | – | –
2 | Cl.Cl.O=C(C1CCCN(Cc2ccccc2F)C1)N1CCN(C(=O)C2CCCN(Cc3ccccc3F)C2)CC1 (stereo not given) | – | – | – | – | – | Active | Active | Active | Active | 64 | Active | Active | Active | Active | Active | – | – | – | – | – | –
3 | Cl.O=C(c1ccc(Br)cc1)N1CCCC(C(=O)N2CCN(c3ccccc3Cl)CC2)C1 (stereo not given) | – | – | – | – | – | – | Active | – | Active | – | – | Active | – | Active | Active | Active | Active | Active | 75 | Active | Activity [16]: 47%; inhibition (Platelet [22]): Active; inhibition (Platelet [23]): Active; Activity [24]: 81%; inhibition (Platelet [25]): Active
4 | O=C(c1ccc[n+](Cc2ccccc2F)c1)N1CCN(c2ccccc2Cl)CC1.[Cl-] | Active | 66 | Active | Active | Active | – | – | Active | – | 85 | – | – | Active | – | – | – | Active | – | 89 | – | inhibition (Platelet [26]): Active; inhibition (Platelet [27]): Active; Activity [28]: 71%; Activity [29]: 55%; inhibition (Platelet [30]): Active; Activity [31]: 90%; inhibition (Platelet [32]): Active; Activity [33]: 71%; inhibition (Platelet [34]): Active; Activity [35]: 80%
5 | Cl.O=C(C1CCCN(Cc2ccccc2)C1)N1CCN(c2ccccc2Cl)CC1 (stereo not given) | – | – | – | – | – | Active | – | Active | – | 22 | Active | – | Active | – | – | Active | Active | Active | 26 | Active | Activity [36]: 86%; inhibition (Platelet [37]): Active; inhibition (Platelet [38]): Active; inhibition (Platelet [26]): Active; inhibition (Platelet [27]): Active; inhibition (Platelet [30]): Active; inhibition (Platelet [22]): Active; inhibition (Platelet [32]): Active; inhibition (Platelet [23]): Active; Activity [39]: 100%; Activity [40]: 90%; Activity [24]: 30%; Activity [41]: 23%; inhibition (Platelet [25]): Active; inhibition (Platelet [34]): Active
6 | Cl.Cl.O=C(C1CCCN(Cc2ccc(CN3CCCC(C(=O)N4CCN(c5ncccn5)CC4)C3)cc2)C1)N1CCN(c2ncccn2)CC1 (stereo not given) | – | – | – | – | – | Active | – | Active | – | 58 | Active | – | Active | – | – | Active | Active | – | 92 | Active | Activity [31]: 23%
